# From patent publication US12414907B2, “Peptide having hair growth promoting activity and use thereof” (CAREGEN CO., LTD., priority 2019, dated 2025)
# What was measured:
# ERK = test: Western blotting of phosphorylated ERK in dermal papilla cells; type: cell-based, human; settings: peptide 0.5 uM, 5 uM or 50 uM, serum-free medium, 30 minutes; FIG. 2
# Procedure: (§1) The effect of the peptide consisting of the amino acid sequence of SEQ ID NO: 1 on the activation of proliferation-related factors in hair follicle cells was to be confirmed. In detail, human dermal papilla cells were seeded in a 6-well plate at a density of 4×10^5 cells/well, and cultured for 16 hours. The culture medium was replaced with a serum-free medium, and the peptide was added thereto at a concentration of 0.5 uM, 5 uM, or 50 uM, and the cells were cultured for 30 minutes. Here, as a positive control group, 5 uM of Minoxidil was treated. Cell lysates were prepared by harvesting the cell, and then, western blotting was performed with respect to phosphorylated ERK and phosphorylated AKT by using p-ERK antibodies and p-AKT antibodies (Santacruz biotechnology, USA).
# AKT = test: Western blotting of phosphorylated AKT in dermal papilla cells; type: cell-based, human; settings: peptide 0.5 uM, 5 uM or 50 uM, serum-free medium, 30 minutes; FIG. 2
# Procedure: as §1
# β-catenin = test: Western blotting of nuclear β-catenin in dermal papilla cells; type: cell-based, human; settings: peptide 0.5 uM, 5 uM or 50 uM, serum-free medium, 24 hours, nuclear proteins; FIG. 3
# Procedure: The effect of the peptide consisting of the amino acid sequence of SEQ ID NO: 1 on the activation of a proliferation mechanism of hair follicle cells was to be confirmed. In detail, human dermal papilla cells were seeded in a 6-well plate at a density of 4×10^5 cells/well, and cultured for 16 hours. The culture medium was replaced with a serum-free medium, and the peptide was added thereto at a concentration of 0.5 uM, 5 uM, or 50 uM, and the cells were cultured for 24 hours. Here, as a positive control group, 5 uM of Minoxidil was treated. The cells were harvested and nuclear proteins thereof were isolated by using a nuclear protein extraction kit (Merck, USA). Then, western blotting was performed with respect to β-catenin which is a factor related to proliferation of the dermal papilla cells by using β-catenin antibodies (Santacruz biotechnology, USA).
# DKK-1 = test: Western blotting of DKK-1 expression in DHT-stimulated dermal papilla cells; type: cell-based, human; settings: DHT 10 ug/ml as stimulator, peptide 0.5 uM, 5 uM or 50 uM, 24 hours; FIG. 4
# Procedure: The inhibitory effect of the peptide consisting of the amino acid sequence of SEQ ID NO: 1 on the expression of DKK-1, which is a hair loss-related factor, in hair follicle cells was to be confirmed. In detail, human dermal papilla cells were seeded in a 6-well plate at a density of 4x10^5 cells/well, and cultured for 16 hours. After the culture medium was replaced with a serum-free medium, dihydrotestosterone (DHT) as a stimulator was added thereto at a concentration of 10 ug/ml while peptide was added thereto at a concentration of 0.5 uM, 5 uM, or 50 uM. Then, the cells were cultured for 24 hours. The cells were harvested and nuclear proteins thereof were isolated by using a nuclear protein extraction kit. Then, western blotting was performed by using DKK-1 antibodies (Santacruz biotechnology, USA). Here, DHT is known as a hair loss hormone that increases the expression of DKK-1, which is a hair loss-inducible factor, by activating an androgen receptor.
# TGFβ-1 = test: PCR of TGFβ-1 expression in dermal papilla cells; type: cell-based, human; settings: peptide 0.5 uM, 5 uM or 50 uM, serum-free medium, 24 hours, PCR with GAPDH; FIG. 5
# Procedure: The inhibitory effect of the peptide consisting of the amino acid sequence of SEQ ID NO: 1 on the expression of TGFβ-1, which is a hair loss-related factor, in hair follicle cells was to be confirmed. In detail, human dermal papilla cells were seeded in a 6-well plate at a density of 4x10^5 cells/well, and cultured for 16 hours. The culture medium was replaced with a serum-free medium, and the peptide was added thereto at a concentration of 0.5 uM, 5 uM, or 50 uM, and the cells were cultured for 24 hours. Here, as a positive control group, 5 uM of Minoxidil was treated. After the cells were harvested, RNA was extracted therefrom and used for synthesis of cNDA by using a cDNA synthesis kit and PCR pre-mix. TGFβ-1, as an androgen-inducible factor in hair follicle cells, is known to be related to hair loss.
# [1] = test system: human hair follicle dermal papilla cells; test: Proliferation of human hair follicle dermal papilla cells (MTT method); type: cell-based; settings: peptide 0.5 uM, 5 uM or 50 uM, serum-free medium, 72 hours; FIG. 1
# Procedure: The promoting effect of the peptide consisting of the amino acid sequence of SEQ ID NO: 1 on the proliferation of hair follicle cells was to be confirmed. In detail, human hair follicle dermal papilla cells were seeded in a 96-well plate at a density of 5×10^3 cells/well, and cultured for 16 hours. The culture medium was replaced with a serum-free medium, and the peptide was added thereto at a concentration of 0.5 uM, 5 uM, or 50 uM, and the cells were cultured for 72 hours. Here, as a positive control group, 5 uM of Minoxidil which is used as a hair loss treatment was treated. Afterwards, an MTT method was performed to measure the cell proliferation. In detail, 4 ug/ml of 3-(4,5-dimethylthiazol-2-yl)-2,5-diphenyltetrazolium bromide (MTT) was treated, and 4 hours later, DMSO was treated thereon to dissolve formazan. Then, the absorbance at 560 nm was measured by using a spectrophotometer.
substance,measurement,setting,value
WQNMRL [SEQ ID NO: 1],phosphorylation of ERK,ERK,induced
same,phosphorylation of AKT,AKT,induced
same,movement of β-catenin from the cytoplasm to the nucleus,β-catenin,increased
same,expression of DKK-1,DKK-1,inhibit the expression of DKK-1
same,expression of TGFβ-1,TGFβ-1,inhibit the expression of TGFβ-1
same,"proliferation of human dermal papilla cells (MTT, absorbance at 560 nm)",[1],promoted the proliferation of human dermal papilla cells
